Target: T1, human eIF4E1a (Homo sapiens, UniProt P06730)
T1 construct: made in house; host or cells: E. coli Rosetta 2 (DE3)pLysS
Experiment: Fluorescence quenching titration (FQT) binding assay with eIF4E
Method: The human eIF4E1a protein was expressed without affinity tag in E. coli Rosseta 2 (DE3)pLysS strain (Novagen) under conditions leading to accumulation of the produced protein in inclusion bodies ([48]). The protein was extracted from inclusion bodies with buffer containing 6 M guanidine hydrochloride, refolded by one-step dialysis against 50 mM HEPES/KOH (pH 7.2), 100 mM KCl, 0.5 mM EDTA, 2 mM DTT, and purified by ion exchange chromatography on HiTrap SP HP 5 ml column (GE Healthcare) using salts gradient. Finally, protein was filtered using Ultrafree MC-HV Centrifugal PVDF filters with 0.45 μm membrane pore (Millipore) to remove protein aggregates and its concentration was determined spectrophotometrically assuming the theoretical extinction coefficient ϵ280nm = 52 940 L mol^−1cm^−1—calculated from amino acid composition using algorithm on ExPASy Server.
Fluorescence titration measurements were carried out on a LS-55 spectrofluorometer (Perkin Elmer Co., Norwalk, CT, USA) in a quartz semi-micro cuvette (Hellma, Germany) with optical lengths 4 mm and 10 mm for absorption and emission, respectively, which was thermostated at 20.0 ± 0.2 °C. The titrations were performed in 50 mM Hepes/KOH pH 7.2, 100 mM KCl, 0.5 mM EDTA and 1 mM DTT by adding 1 μl aliquots of increasing concentrations of the cap solutions to 1.4 ml of 0.1 μM eIF4E1a solution. The eIF4E1a fluorescence was excited at 280 nm and the fluorescence intensity was monitored at a single wavelength 340 nm. The measured fluorescence intensities were corrected for dilution (<4%) and for the inner filter effect. Association equilibrium constants (Kas) were obtained by fitting the theoretical curve for fluorescence intensity (F) upon total concentration of cap analogs ([L]) to the titration data according to the equation: […]
with the concentration of the cap analogs–eIF4E1a complex [cx] given by:
where Δϕ stands for the difference between the fluorescence efficiencies of the apo- and cap analog bound proteins; ϕlig-free is the fluorescence efficiency of the free cap analog; F(0) is the initial fluorescence, and Pact is the total concentration of the active protein ([49]). The final KAS values were calculated as a weighted average from three independent titrations and represented as the KD values. Numerical least-squares nonlinear regression analysis was performed using ORIGIN 2021 from Microcal Software Inc., USA.
Recognition of the mRNA 5′ cap by translation initiation factor 4E (eIF4E) is considered to be the rate-limiting step for the entire translation process ([63],[64]), therefore we investigated the affinity of novel trinucleotide cap analogs to the canonical human eIF4E1a protein by fluorescence quenching titration (FQT; Table 1 column 1, Figure 3) ([65]). As a reference, we determined the dissociation constant between heIF4E1a and the trinucleotide cap-1 structure m^7GpppAmpG, which was equal to 42 nM and very close to the analogous value previously determined for mouse Δ27NeIF4E (46 nM) ([12]). In the case of all modifications tested, the KD values for cap-heIF4E1a complexes are consistent with the results previously obtained for dinucleotide counterparts and murine eIF4E protein, although the magnitude of the modification effect is generally lower. The most tightly bound tetraphosphate analogs (compounds 10–12) show KD values of 6–7 nM, which means that their affinity is about 6-fold higher compared to the triphosphate counterparts. The affinities decrease upon CH2 or CCl2 modification of the tetraphosphate bridge (compounds 13–16), but they are still 4–5 times higher than for the triphosphate analogs with the same adenosine methylation pattern.

T1 sequence (P06730 whole entry): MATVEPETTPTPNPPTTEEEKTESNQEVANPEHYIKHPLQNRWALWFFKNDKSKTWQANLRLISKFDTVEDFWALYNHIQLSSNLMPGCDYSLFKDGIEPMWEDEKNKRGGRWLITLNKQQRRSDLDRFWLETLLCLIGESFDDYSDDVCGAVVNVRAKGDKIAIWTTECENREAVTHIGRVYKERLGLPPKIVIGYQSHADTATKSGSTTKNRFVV

CO[C@@H]1[C@H](OP(=O)(O)OC[C@H]2O[C@@H](n3cnc4c(=O)[nH]c(N)nc43)[C@H](O)[C@@H]2O)[C@@H](CSP(=O)([O-])OP(=O)(O)OP(=O)(O)OC[C@H]2O[C@@H](n3c[n+](C)c4c(O)nc(N)nc43)[C@H](O)[C@@H]2O)O[C@H]1n1cnc2c(N)ncnc21 [Compound 8, m^7Gppp^5’SAmpG]
effect of modification on binding affinity for heIF4E1a (in words) (compared to corresponding triphosphates): virtually no effect on binding affinity | Kd (fluorescence quenching titration, 20 °C, pH 7.2, average of triplicates ± SD, read-out: heIF4E1a KD): 48.7 ± 1.2 nM
